Calls of active or inactive are those of the source. The calls are words filed in the database; no cut-off is given here.
Columns and labels:
[1] = test system: MCF7; assay: Antiproliferative activity against human MCF7 cells incubated for 5 days by MTT assay; assay type: functional, cell-based; conditions: MCF7, 120 h
[2] = test system: Ishikawa; assay: Antiproliferative activity against human Ishikawa cells at 20 uM incubated for 3 days by MTT assay relative to control; assay type: functional; conditions: 72 h, time 3 day
[3] = molecular target: T1, Estrogen receptor (Homo sapiens) (UniProt P03372); assay: Induction of estrogen receptor degradation in human MCF7 cells incubated for 24 hrs by Western blot analysis; assay type: cell-based; conditions: dose 0.001-10 µM
T1 sequence (whole entry): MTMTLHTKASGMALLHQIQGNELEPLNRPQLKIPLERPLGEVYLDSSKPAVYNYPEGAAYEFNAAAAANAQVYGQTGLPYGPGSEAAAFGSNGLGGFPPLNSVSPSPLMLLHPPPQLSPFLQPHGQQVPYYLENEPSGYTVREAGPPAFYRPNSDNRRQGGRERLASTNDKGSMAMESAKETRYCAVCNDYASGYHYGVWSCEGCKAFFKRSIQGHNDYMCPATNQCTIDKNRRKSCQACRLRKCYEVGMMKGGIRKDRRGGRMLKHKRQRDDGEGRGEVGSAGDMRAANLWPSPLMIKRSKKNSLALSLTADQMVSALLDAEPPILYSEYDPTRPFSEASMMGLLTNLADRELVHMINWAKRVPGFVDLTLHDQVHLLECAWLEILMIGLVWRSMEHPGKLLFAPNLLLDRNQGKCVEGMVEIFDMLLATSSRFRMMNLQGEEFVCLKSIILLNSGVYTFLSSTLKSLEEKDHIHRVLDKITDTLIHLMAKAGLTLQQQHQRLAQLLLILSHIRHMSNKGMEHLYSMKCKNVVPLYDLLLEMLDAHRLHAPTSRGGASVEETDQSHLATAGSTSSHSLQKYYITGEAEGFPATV

[4] = molecular target: T1, Estrogen receptor (Homo sapiens); assay: Induction of estrogen receptor degradation in MG-132-treated human MCF7 cells at 10 uM incubated for 4 to 6 hrs by Western blot analysis; assay type: cell-based; conditions: time 4-6 hrs
[5] = molecular target: T1, Estrogen receptor (Homo sapiens); assay: Induction of estrogen receptor degradation in human MCF7 cells at 10 uM by fluorescence microscopy; assay type: cell-based
[6] = molecular target: T1, Estrogen receptor (Homo sapiens); assay: Induction of estrogen receptor degradation in estradiol-stimulated human MCF7 cells assessed as decrease in PGR mRNA level incubated for 24 hrs by RT-qPCR analysis; assay type: cell-based; conditions: dose 1-10 µM
[7] = molecular target: T1, Estrogen receptor (Homo sapiens); assay: Induction of estrogen receptor degradation in estradiol-stimulated human MCF7 cells assessed as decrease in GREB1 mRNA level incubated for 24 hrs by RT-qPCR analysis; assay type: cell-based; conditions: dose 1-10 µM
[8] = molecular target: T1, Estrogen receptor (Homo sapiens); assay: Induction of estrogen receptor degradation in estradiol-stimulated human MCF7 cells assessed as decrease in TFF1 mRNA level incubated for 24 hrs by RT-qPCR analysis; assay type: cell-based; conditions: dose 1-10 µM
[9] = molecular target: T1, Estrogen receptor (Homo sapiens); assay: Induction of estrogen receptor degradation in human MCF7 cells expressing ERE-luciferase at 10 uM incubated for 24 hrs by luminescence based analysis; assay type: cell-based
[10] = test system: MCF7; assay: Synergistic antiproliferative activity against human MCF7 cells at 0.1 to 10000 nM incubated for 5 days in presence of Ribociclib by MTT assay; assay type: functional, cell-based; conditions: dose 0.1-10000 nM, time 5.0 day
[11] = test system: MCF7; assay: Induction of cell cycle arrest at G0/G1 phase in human MCF7 cells at 10 uM incubated for 24 hrs by PI/RNase staining based flow cytometry (reference value: 53.5 +/- 1.96 %); assay type: functional
[12] = test system: MCF7; assay: Induction of ROS production in human MCF7 cells incubated for 3 to 24 hrs by immunofluorescence analysis; assay type: functional, cell-based; conditions: time 3-24 hrs
[13] = test system: MCF7; assay: Induction of ROS production in human MCF7 cells measured after 6 to 24 hrs by flow cytometry; assay type: functional, cell-based; conditions: time 6-24 hrs
[14] = test system: MCF7; assay: Induction of endoplasmic reticulum stress effect in human MCF7 cells assessed as change in calnexin level at 10 uM incubated for 3 to 24 hrs by Western blot analysis; assay type: functional, cell-based; conditions: time 3-24 hrs
[15] = test system: MCF7; assay: Induction of endoplasmic reticulum stress effect in human MCF7 cells assessed as change in GRP78 level at 10 uM incubated for 3 to 24 hrs by Western blot analysis; assay type: functional, cell-based; conditions: time 3-24 hrs
[16] = test system: MCF7; assay: Induction of endoplasmic reticulum stress effect in human MCF7 cells assessed as change in ATF4 level at 10 uM incubated for 3 to 24 hrs by Western blot analysis; assay type: functional, cell-based; conditions: time 3-24 hrs
[17] = test system: MCF7; assay: Induction of endoplasmic reticulum stress effect in human MCF7 cells assessed as change in EIF-2alpha level at 10 uM incubated for 3 to 24 hrs by Western blot analysis; assay type: functional, cell-based; conditions: time 3-24 hrs
[18] = test system: MCF7; assay: Induction of endoplasmic reticulum stress effect in human MCF7 cells assessed as change in pEIF-2alpha level at 10 uM incubated for 3 to 24 hrs by Western blot analysis; assay type: functional, cell-based; conditions: time 3-24 hrs
[19] = test system: MCF7; assay: Induction of endoplasmic reticulum stress effect in human MCF7 cells assessed as change in CHOP level at 10 uM incubated for 3 to 24 hrs by Western blot analysis; assay type: functional, cell-based; conditions: time 3-24 hrs
[20] = test system: MCF7; assay: Induction of endoplasmic reticulum stress effect in human MCF7 cells assessed as change in calnexin level at 10 uM incubated for 24 hrs by immunofluorescence based analysis; assay type: functional, cell-based
[21] = test system: MCF7; assay: Induction of endoplasmic reticulum stress effect in human MCF7 cells assessed as change in CHOP level at 10 uM incubated for 24 hrs by immunofluorescence based analysis; assay type: functional, cell-based
[22] = test system: MCF7; assay: Induction of immunogenic cell death in human MCF7 cells assessed as CRT translocation at 10 uM by Western blot analysis; assay type: functional, cell-based
[23] = test system: MCF7; assay: Induction of immunogenic cell death in human MCF7 cells assessed as CRT translocation at 10 uM by FITC staining based flow cytometry; assay type: functional
[24] = test system: MCF7; assay: Induction of immunogenic cell death in human MCF7 cells assessed as CRT translocation at 10 uM by fluorescence microscopy; assay type: functional, cell-based
[25] = test system: MCF7; assay: Induction of immunogenic cell death in human MCF7 cells assessed as HSP90 exposure at 10 uM by Western blot analysis; assay type: functional, cell-based
[26] = test system: MCF7; assay: Induction of immunogenic cell death in human MCF7 cells assessed as HMGB1 release from nucleus at 10 uM by Western blot analysis; assay type: functional, cell-based
[27] = test system: MCF7; assay: Induction of immunogenic cell death in human MCF7 cells assessed as HMGB1 release from nucleus at 10 uM by FITC staining based flow cytometry; assay type: functional
[28] = test system: MCF7; assay: Induction of immunogenic cell death in human MCF7 cells assessed as HMGB1 release from nucleus at 10 uM by fluorescence microscopy; assay type: functional, cell-based
[29] = test system: MCF7; assay: Induction of immunogenic cell death in human MCF7 cells assessed as ATP release […] at 10 uM; assay type: functional, cell-based
[30] = test system: MCF7; assay: Antitumor activity against human MCF7 cells xenografted in nude mouse model assessed as tumor growth inhibition at 60 mg/kg, po administered daily via gavage for 30 days; assay type: functional, organism-based; conditions: time 30.0 day
[31] = test system: MCF7; assay: Antitumor activity against human MCF7 cells xenografted in nude mouse model at 60 mg/kg, po administered daily via gavage for 30 days in presence of ribociclib; assay type: functional, organism-based; conditions: time 30.0 day
[32] = Toxicity in nude mouse model xenografted with human MCF7 cells assessed as body weight loss at 60 mg/kg, po administered daily via gavage for 30 days; assay type: organism-based; conditions: in vivo, 720 h, time 30 day
[33] = Toxicity in nude mouse model xenografted with human MCF7 cells assessed as morphological change in heart at 60 mg/kg, po administered daily via gavage for 30 days by H and E staining based analysis; assay type: organism-based; conditions: in vivo, 720 h, time 30 day
[34] = Toxicity in nude mouse model xenografted with human MCF7 cells assessed as morphological change in liver at 60 mg/kg, po administered daily via gavage for 30 days by H and E staining based analysis; assay type: organism-based; conditions: in vivo, 720 h, time 30 day
[35] = Toxicity in nude mouse model xenografted with human MCF7 cells assessed as morphological change in spleen at 60 mg/kg, po administered daily via gavage for 30 days by H and E staining based analysis; assay type: organism-based; conditions: in vivo, 720 h, time 30 day
[36] = Toxicity in nude mouse model xenografted with human MCF7 cells assessed as morphological change in kidney at 60 mg/kg, po administered daily via gavage for 30 days by H and E staining based analysis; assay type: organism-based; conditions: in vivo, 720 h, time 30 day
[37] = test system: MCF7; assay: Antitumor activity against human MCF7 cells xenografted in nude mouse model assessed as reduction in Ki67 level at 60 mg/kg, po administered daily via gavage for 30 days in presence of ribociclib by IHC analysis; assay type: functional, organism-based; conditions: time 30.0 day
[38] = test system: MCF7; assay: Antitumor activity against human MCF7 cells xenografted in nude mouse model assessed as reduction in ER level at 60 mg/kg, po administered daily via gavage for 30 days in presence of ribociclib by IHC analysis; assay type: functional, organism-based; conditions: time 30.0 day
[39] = test system: MCF7; assay: Antitumor activity against human MCF7 cells xenografted in nude mouse model assessed as reduction in PR level at 60 mg/kg, po administered daily via gavage for 30 days in presence of ribociclib by IHC analysis; assay type: functional, organism-based; conditions: time 30.0 day
[40] = test system: Uterus; assay: Effect on immature Sprague-Dawley rat uterus assessed as reduction in uterine wet weight at 60 mg/kg, po qd for 2 days by H and E staining based analysis; assay type: functional, organism-based; conditions: time 2.0 day
[41] = test system: Uterus; assay: Effect on immature Sprague-Dawley rat uterus assessed as reduction in uterine wet weight at 2 mg/kg, sc qd for 2 days by H and E staining based analysis; assay type: functional, organism-based; conditions: time 2.0 day

Question: For `CCc1cc(/C=C/C(=O)O)ccc1Oc1c(C(=O)c2ccccc2CC)cnc2cc(O)ccc12`, which IC50 [1] is on record?
Answer: 510 nM

Question: What about the inhibition at 20 µM [2] of the same compound?
Answer: 13.2%

Question: What about the Activity [3] of the same compound?
Answer: Dose-Dependent Effect

Question: What about the Activity [4] of the same compound?
Answer: inactive

Question: What about the Activity [5] of the same compound?
Answer: Active

Question: And the Activity [6]?
Answer: Dose-Dependent Effect

Question: And the Activity [7]?
Answer: Dose-Dependent Effect

Question: What about the Activity [8] of the same compound?
Answer: Dose-Dependent Effect

Question: What about the Activity [9] of the same compound?
Answer: Active

Question: And the Activity [10]?
Answer: Active

Question: What about the Activity [11] of the same compound?
Answer: 64%

Question: And the Activity [12]?
Answer: inactive

Question: And the Activity [13]?
Answer: inactive

Question: What about the Activity [14] of the same compound?
Answer: Active

Question: What about the Activity [15] of the same compound?
Answer: Active

Question: What about the Activity [16] of the same compound?
Answer: Active

Question: And the Activity [17]?
Answer: Active

Question: What about the Activity [18] of the same compound?
Answer: Active

Question: And the Activity [19]?
Answer: Active

Question: And the Activity [20]?
Answer: Active

Question: And the Activity [21]?
Answer: Active

Question: And the Activity [22]?
Answer: Active

Question: What about the Activity [23] of the same compound?
Answer: Active

Question: What about the Activity [24] of the same compound?
Answer: Active

Question: And the Activity [25]?
Answer: Active

Question: What about the Activity [26] of the same compound?
Answer: Active

Question: And the Activity [27]?
Answer: Active

Question: And the Activity [28]?
Answer: Active

Question: What about the Activity [29] of the same compound?
Answer: Active

Question: And the inhibition [30]?
Answer: Active

Question: And the Activity [31]?
Answer: Active

Question: And the Activity [32]?
Answer: Non-Toxic

Question: What about the Activity [33] of the same compound?
Answer: Non-Toxic

Question: What about the Activity [34] of the same compound?
Answer: Non-Toxic

Question: What about the Activity [35] of the same compound?
Answer: Non-Toxic

Question: And the Activity [36]?
Answer: Non-Toxic

Question: And the Activity [37]?
Answer: Active

Question: What about the Activity [38] of the same compound?
Answer: Active

Question: And the Activity [39]?
Answer: Active

Question: What about the Activity [40] of the same compound?
Answer: inactive

Question: For `C[C@]12CC[C@@H]3c4ccc(O)cc4C[C@@H](CCCCCCCCC[S+]([O-])CCCC(F)(F)C(F)(F)F)[C@H]3[C@@H]1CC[C@@H]2O` (stereo partly specified) [FULVESTRANT], which IC50 [1] is on record?
Answer: 0.646 nM

Question: What about the inhibition at 20 µM [2] of the same compound?
Answer: -3.19%

Question: And the Activity [10]?
Answer: Active

Question: What about the Activity [11] of the same compound?
Answer: 66.83%

Question: And the Activity [12]?
Answer: inactive

Question: And the Activity [41]?
Answer: Active

From ChEMBL document CHEMBL5584239, “Discovery of novel quinoline scaffold selective estrogen receptor degraders (SERDs) for treatment of ER positive breast cancer with enhanced antiproliferative bioactivity through immunogenic cell death (ICD) effects” (Eur J Med Chem, 2024)
